Values joined by “and” are separate entries in the source; they are usually repeats but may differ in a detail not shown here. Equal entries are not always repeated.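 Grown in 96-well plates, cells were treated for 48 hours with each compound at five concentrations. Insufficient inhibition: endpoint recorded as highest concentration tested. GI50 = concentration required for 50% inhibition of growth. TGI denotes the concentration required for complete inhibition of growth.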

Test systems include P388 leukemia; DMS 114 small cell lung; XF 498 CNS; HOP-18 NSCLC; PC-3 prostate; P388/ADR leukemia; DLD-1 colon; SNB-78 CNS; KM20L2 colon; MDA-N; M19-MEL melanoma.
What all share (assay): NCI tumour cell line growth inhibition, 48 h

Take `COc1cc(C2c3cc4c(cc3[C@@H](Nc3ccc(C#N)cc3)C3COC(=O)[C@H]23)OCO4)cc(OC)c1O` (stereo partly specified): the TGI in the test with P388 leukemia was 0.832 µM; in the test with DMS 114 small cell lung, 4.14 µM; in the test with XF 498 CNS, 22.8 µM; with HOP-18 NSCLC it was 39.3 µM; with PC-3 prostate, 50 µM and > 100 µM; in the test with P388/ADR leukemia, 2.11 µM. Also, the TGI in the test with DLD-1 colon was 3.51 µM; with SNB-78 CNS, 75 µM; in the test on KM20L2 colon, 75 µM; in the test with MDA-N, 18.7 µM and > 100 µM. Moreover, in the test on PC-3 prostate, the GI50 was 2.81 µM.

As to `CC1=NOC(=O)/C1=C/c1ccccc1O`, the TGI in the test on DMS 114 small cell lung, with XF 498 CNS, in the test on HOP-18 NSCLC, in the test on DLD-1 colon, in the test on M19-MEL melanoma and with SNB-78 CNS was above 100 µM throughout. Besides, the TGI with KM20L2 colon was above 100 µM.

`c1cc(-c2cn3ccsc3n2)ccn1`: the TGI with DMS 114 small cell lung, in the test with XF 498 CNS, in the test with HOP-18 NSCLC, with DLD-1 colon, in the test on M19-MEL melanoma and in the test with SNB-78 CNS was above 100 µM in each case. In the test with KM20L2 colon, this molecule had a TGI above 31.6 µM.

As for `COCCN1C2=CCCCC2=Nc2c1nc(N)[nH]c2=O`, the TGI in the test with DMS 114 small cell lung, with XF 498 CNS, with HOP-18 NSCLC, in the test with DLD-1 colon, in the test with M19-MEL melanoma and with SNB-78 CNS was above 100 µM each time. Besides, the TGI with KM20L2 colon was above 100 µM.

As to `CN(C(=O)C12C3C4C5C3C1(C(=O)O)C5C42)C(C)(C)C` (stereo unspecified), the TGI is 72.6 µM in the test on DMS 114 small cell lung; above 100 µM in the test with XF 498 CNS; above 100 µM with HOP-18 NSCLC; 55.2 µM in the test on DLD-1 colon; above 100 µM in the test on M19-MEL melanoma; above 100 µM with SNB-78 CNS. In addition, in the test on KM20L2 colon, the TGI was above 100 µM.

Turning to `O=C(O)c1ccc([Se][Se]c2ccc(C(=O)O)cc2)cc1`, the TGI is 54 µM with DMS 114 small cell lung; 81.1 µM with XF 498 CNS; 82.3 µM with HOP-18 NSCLC; above 100 µM in the test on DLD-1 colon; 40.5 µM in the test on M19-MEL melanoma; 52.4 µM in the test with SNB-78 CNS. Moreover, the TGI with KM20L2 colon was above 100 µM.

For `Cc1cccc(NC(=O)CC(=O)N2N=C(N(CCC#N)c3ccc(Cl)cc3)CC2c2ccccc2)c1` (stereo unspecified), the TGI with DMS 114 small cell lung, with XF 498 CNS, in the test on HOP-18 NSCLC, with DLD-1 colon, in the test with M19-MEL melanoma and in the test with SNB-78 CNS was above 100 µM in each case.

With `CC(C)C(=O)Nc1nc2nc[nH]c2c(=O)[nH]1`, the TGI in the test on DMS 114 small cell lung, in the test with XF 498 CNS, in the test with HOP-18 NSCLC, in the test on DLD-1 colon, with M19-MEL melanoma and in the test on SNB-78 CNS was above 100 µM in each case. The same molecule registered a TGI in the test on KM20L2 colon above 100 µM.

`CCN(CC)CCn1ccc(=O)c2cc3c(=O)ccn(CCN(CC)CC)c3c(C)c21`: the TGI in the test with DMS 114 small cell lung came out at 27.6 µM; in the test on XF 498 CNS, 21.4 µM; with HOP-18 NSCLC, 30 µM; with PC-3 prostate, 15.9 µM; with DLD-1 colon, 7.83 µM; in the test on M19-MEL melanoma, 25.2 µM. In addition, the TGI in the test on SNB-78 CNS is 26.9 µM; in the test with KM20L2 colon, 15.4 µM; in the test on MDA-N, 18 µM.

In the case of `Cc1ccncc1.[O]=[Ge].[O]=[Ge].[O]=[Ge].[O]=[Ge].[O]=[Ge].[O]=[Ge][OH].[O]=[Ge][OH]`, the GI50 in the test with DMS 114 small cell lung, in the test with XF 498 CNS, with HOP-18 NSCLC, in the test with DLD-1 colon, with M19-MEL melanoma and in the test on SNB-78 CNS was above 100 µM each time. Further, the GI50 with KM20L2 colon was above 100 µM. Further, the TGI in the test on DMS 114 small cell lung, with XF 498 CNS, with HOP-18 NSCLC, in the test with DLD-1 colon, in the test with M19-MEL melanoma and in the test with SNB-78 CNS was above 100 µM in each case. The molecule also came in with a TGI with KM20L2 colon above 100 µM.

As for `N#C/C(=C1\OC(=O)C(c2ccc(Br)cc2)=C1O)c1ccc(Br)cc1`, the TGI was 25.9 µM in the test on DMS 114 small cell lung; 25.6 µM with XF 498 CNS; 26.3 µM in the test on HOP-18 NSCLC; 34.6 µM in the test with DLD-1 colon; 31.1 µM with M19-MEL melanoma; 28.2 µM in the test on SNB-78 CNS. In the test with KM20L2 colon, this molecule showed a TGI of 31.5 µM.

Turning to `C=C1C(=O)O[C@H]2[C@H]1[C@H](OC(=O)/C(C)=C\C)CC(=C)[C@@H]1[C@H](O)[C@H]3O[C@@]3(C)[C@@]12O`, the TGI in the test with DMS 114 small cell lung, in the test on XF 498 CNS, in the test with HOP-18 NSCLC, in the test with DLD-1 colon, in the test with M19-MEL melanoma and with SNB-78 CNS was above 100 µM in each case. In the test with KM20L2 colon, the TGI is above 100 µM.

With `CNS(=O)(=O)NN(C)S(=O)(=O)c1ccc(F)cc1`, the TGI in the test on DMS 114 small cell lung, in the test on XF 498 CNS, with HOP-18 NSCLC, with DLD-1 colon and in the test with KM20L2 colon was above 100 µM each time.

Regarding `CCCc1[nH]nc(CCC(=O)N(Cc2ccccc2)Cc2ccccc2)c1CC`, the TGI with DMS 114 small cell lung, with XF 498 CNS, in the test with HOP-18 NSCLC, with DLD-1 colon, in the test with M19-MEL melanoma and in the test on KM20L2 colon was above 100 µM throughout.

Take `COc1nc(NC2OCC(OC(C)=O)C(OC(C)=O)C2OC(C)=O)c(N=CC=Nc2c(NC3OCC(OC(C)=O)C(OC(C)=O)C3OC(C)=O)nc(OC)n(C)c2=O)c(=O)n1C` (stereo unspecified): the TGI in the test on XF 498 CNS is 95.9 µM; in the test on HOP-18 NSCLC, above 100 µM; in the test on DLD-1 colon it was above 100 µM; in the test on M19-MEL melanoma, above 100 µM; with SNB-78 CNS, above 100 µM; with KM20L2 colon, above 100 µM.

With `CCCCCCCCCCCCOC(=S)NCCCC`, the TGI in the test with DMS 114 small cell lung is 37.7 µM; in the test on XF 498 CNS it was 31.9 µM; in the test with HOP-18 NSCLC, 89.1 µM; with DLD-1 colon it was above 100 µM; in the test with M19-MEL melanoma it was above 100 µM; in the test with SNB-78 CNS, 88.4 µM. In the test on KM20L2 colon, this molecule yielded a TGI of 39.5 µM.

Take `CC(=O)NC(CCCNCc1ccccc1)C(=O)NCc1ccccc1` (stereo unspecified): the TGI with DMS 114 small cell lung, with XF 498 CNS, in the test on DLD-1 colon, in the test on M19-MEL melanoma, in the test on SNB-78 CNS and with KM20L2 colon was above 100 µM throughout.

Turning to `CCOC(=O)C1=C(C)N(Cc2ccccc2)C(C)=C(C(=O)OCC)C1c1ccccc1O`, the TGI in the test on DMS 114 small cell lung is 43.8 µM; in the test with XF 498 CNS, 51.3 µM; in the test on HOP-18 NSCLC it was above 100 µM; with DLD-1 colon, above 100 µM; in the test on M19-MEL melanoma it was 75.7 µM; with KM20L2 colon it was above 100 µM.

For `COC(=O)CCC(NC(=S)N/N=C(\C)c1nccs1)C(=O)OC` (stereo unspecified), the TGI with DMS 114 small cell lung was 57.5 µM; with XF 498 CNS, above 100 µM; in the test with HOP-18 NSCLC, above 100 µM; in the test on DLD-1 colon, above 100 µM; in the test on M19-MEL melanoma, above 100 µM; in the test on SNB-78 CNS it was above 100 µM. This molecule came in with a TGI with KM20L2 colon above 100 µM.

For `CC1=NCCc2c1[nH]c1cc(O)ccc21`, the TGI with DMS 114 small cell lung, in the test on XF 498 CNS, in the test with HOP-18 NSCLC, in the test with DLD-1 colon, in the test on M19-MEL melanoma and in the test with SNB-78 CNS was above 100 µM each time. Also, in the test with KM20L2 colon, the TGI is above 100 µM.
